Measurements taken from ChEMBL document CHEMBL1201862, “PubChem BioAssay data set” (2004).
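In this assay, cells in 96-well plates receive the compound at five concentrations for 48 hours. Endpoints are linearly interpolated between the surrounding concentrations. Abbreviation: GI50, concentration required for 50% inhibition of growth.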 Activity calls are given as the source filed them. No stated cut-off is given here; in the data, active = GI50 up to about 1.1 µM and inactive = higher.

Key:
Assay in all cases: DTP human tumour cell line panel, 48 h
RPMI-8226 = tested on: RPMI-8226
LOX IMVI = tested on: LOX IMVI
DU-145 = tested on: DU-145
SK-MEL-2 = tested on: SK-MEL-2
A498 = tested on: A498
786-0 = tested on: 786-0
NCI-H23 = tested on: NCI-H23
UACC-62 = tested on: UACC-62
HOP-62 = tested on: HOP-62
SF-268 = tested on: SF-268
HCT-116 = tested on: HCT-116
Hs-578T = tested on: Hs-578T
NCI-H226 = tested on: NCI-H226
SR = tested on: SR
SF-295 = tested on: SF-295
A549 = tested on: A549
CCRF-CEM = tested on: CCRF-CEM
Malme-3M = tested on: Malme-3M
SN12C = tested on: SN12C
OVCAR-3 = tested on: OVCAR-3

Row | SMILES | GI50 (RPMI-8226) | GI50 (LOX IMVI) | GI50 (DU-145) | GI50 (SK-MEL-2) | GI50 (A498) | GI50 (786-0) | GI50 (NCI-H23) | GI50 (UACC-62) | GI50 (HOP-62) | GI50 (SF-268) | GI50 (HCT-116) | GI50 (Hs-578T) | GI50 (NCI-H226) | GI50 (SR) | GI50 (SF-295) | GI50 (A549) | GI50 (CCRF-CEM) | GI50 (Malme-3M) | GI50 (SN12C) | GI50 (OVCAR-3)
1 | c1ccc(C2=NN(c3nc4ccccc4s3)C3(CCCCC3)N2)nc1 | 16.1 µM (inactive) | 20.1 µM (inactive) | 35.7 µM (inactive) | 18.4 µM (inactive) | 32.2 µM (inactive) | 18.3 µM (inactive) | 24.9 µM (inactive) | 30.7 µM (inactive) | 28.9 µM (inactive) | 59.2 µM (inactive) | 26.4 µM (inactive) | 31.7 µM (inactive) | 19.4 µM (inactive) | 1.85 µM (inactive) | 27.8 µM (inactive) | 27.4 µM (inactive) | 29 µM (inactive) | 11.7 µM (inactive) | 19.7 µM (inactive) | 16.7 µM (inactive)
2 | COc1ccc(-c2cc(C(O)C3CCCCN3)c3ccccc3n2)cc1 (stereo not given) | 2.33 µM (inactive) | 2.62 µM (inactive) | 8.39 µM (inactive) | 6.12 µM (inactive) | 12.3 µM (inactive) | 8.34 µM (inactive) | 13.4 µM (inactive) | 3.37 µM (inactive) | 11.7 µM (inactive) | 11.2 µM (inactive) | 9.35 µM (inactive) | 14.3 µM (inactive) | 7.06 µM (inactive) | 0.394 µM (active) | 14.7 µM (inactive) | 13.8 µM (inactive) | 2.8 µM (inactive) | 13.6 µM (inactive) | 10.6 µM (inactive) | 14.4 µM (inactive)
